Test results as given in PMC2990587, “Central nervous system penetration and enhancement of temozolomide activity in childhood medulloblastoma models by poly(ADP-ribose) polymerase inhibitor AG-014699” (British Journal of Cancer, 2010).
Entries after “also recorded” stand apart in the source; their conditions may differ.

Columns and labels:
D384Med cells = test: XTT growth inhibition, D384Med; format: cell-based, human
Method: (§1) Cell growth inhibition was estimated in exponentially growing D425Med, D283Med and D384Med cells in 96-well plates. Seeding densities of 1 × 10^3, 3 × 10^3 and 3 × 10^3 cells, respectively, ensured exponential growth for the duration of the experiment. At 24 h (D384Med) or 48 h (D283Med and D425Med) after seeding, cells were exposed to varying concentrations of temozolomide, as described in the Results, in the presence or absence of 0.4 μM AG-014699, a concentration previously shown to enhance temozolomide cytotoxicity in adult tumour cell lines ([Thomas et al, 2007]). After 3 days (D425Med and D384Med) or 5 days (D283Med) of culture (equivalent to approximately three cell divisions), the cell viability was quantified using an XTT cell proliferation kit assay (Roche, Mannheim, Germany), according to the manufacturer's instructions. Cell growth was expressed as a percentage in relation to DMSO or 0.4 μM AG-014699-alone controls. The concentration of temozolomide, alone or in combination with AG-014699, that inhibited growth by 50% (GI50) was calculated from computer-generated curves (GraphPad Software, San Diego, CA, USA). The potentiation factor50 (PF50) is defined as the ratio of […]. All data were from at least three independent experiments.

D283Med xenografts = test: Tumour growth inhibition in vivo, D283Med xenografts; design: species or system mouse
From the text: All of the in vivo experiments were reviewed and approved by the relevant institutional animal welfare committees, and performed according to national law. Female athymic nude mice (CD1 nu/nu; Charles River, Margate, UK) used for anti-tumour studies were maintained and handled in isolators under specific pathogen-free conditions. […], […] and […] (1 × 10^7 exponentially growing cells per mouse, harvested and implanted in growth media) xenografts were established by sub-cutaneous implantation into CD-1 nude mice. […] Treatment was initiated when sufficient number of mice had established tumours to allow randomisation into treatment groups: day 17 for […], day 26 for […] and day 32 for […]. […] For drug combinations, AG-014699 was administered immediately after administering temozolomide. […] Tumour growth delay (TGD) is defined as the time to RTV4 in drug-treated mice compared with the time to RTV4 in control (vehicle alone) mice. Median tumour volume is shown, rather than the mean, as this is generally accepted as the most statistically reliable representation of the average growth rate of tumours in a small group of mice, if a normal distribution of tumour volumes cannot be assumed. Tumour growth delay was calculated as: median time to RTV4 in treated group-median time to RTV4 in control group.

PARP-1 [1] = molecular target: PARP-1 (Homo sapiens, UniProt P09874); test: PARP activity in D283Med xenograft homogenates after AG-014699 dosing; format: in vivo, mouse
Chain of PARP-1 (Homo sapiens, UniProt P09874) (P09874 whole entry): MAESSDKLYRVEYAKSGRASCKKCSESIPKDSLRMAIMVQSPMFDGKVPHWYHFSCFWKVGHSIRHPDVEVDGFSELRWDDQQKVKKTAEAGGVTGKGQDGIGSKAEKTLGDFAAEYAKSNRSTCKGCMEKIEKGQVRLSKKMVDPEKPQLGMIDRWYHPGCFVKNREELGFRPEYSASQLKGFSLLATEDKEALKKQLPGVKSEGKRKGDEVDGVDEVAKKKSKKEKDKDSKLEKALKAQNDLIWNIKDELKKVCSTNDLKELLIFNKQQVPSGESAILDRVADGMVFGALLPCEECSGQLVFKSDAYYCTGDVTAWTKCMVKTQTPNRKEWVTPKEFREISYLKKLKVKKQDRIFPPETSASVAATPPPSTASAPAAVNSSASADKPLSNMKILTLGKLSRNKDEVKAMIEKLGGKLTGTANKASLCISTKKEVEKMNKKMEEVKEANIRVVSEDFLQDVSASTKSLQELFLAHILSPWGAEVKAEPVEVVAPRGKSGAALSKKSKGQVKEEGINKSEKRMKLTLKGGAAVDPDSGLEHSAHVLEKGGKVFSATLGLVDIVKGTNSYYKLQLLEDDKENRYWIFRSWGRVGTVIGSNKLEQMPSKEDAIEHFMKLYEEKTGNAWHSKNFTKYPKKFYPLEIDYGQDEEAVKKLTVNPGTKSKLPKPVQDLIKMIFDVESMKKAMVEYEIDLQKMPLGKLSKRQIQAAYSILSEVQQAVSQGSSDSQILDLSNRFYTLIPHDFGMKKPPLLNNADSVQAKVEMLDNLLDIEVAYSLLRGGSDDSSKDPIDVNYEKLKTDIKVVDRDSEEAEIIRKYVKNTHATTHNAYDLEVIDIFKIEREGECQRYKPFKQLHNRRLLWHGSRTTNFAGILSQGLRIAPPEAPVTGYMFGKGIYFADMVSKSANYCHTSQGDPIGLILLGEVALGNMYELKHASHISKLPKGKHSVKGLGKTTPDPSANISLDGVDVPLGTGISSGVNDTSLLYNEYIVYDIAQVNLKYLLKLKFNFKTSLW
Method: (§2) One or four daily doses of PARP inhibitor AG-014699 (1 mg kg^−1 intraperitoneally (i.p.)) were given to CD-1 nude mice bearing established D283Med xenografts. At 0.5, 2, 6 and 24 h after the initial or fourth daily dose of AG-014699, three animals per time point were bled by cardiac puncture under general anaesthesia, and then killed. Plasma was separated from the blood samples using standard methods and stored at −80°C. The brains and tumours were removed, snap frozen in liquid nitrogen and stored at −80°C before analysis. Blood, tumour and brain tissue were removed from three untreated control animals and processed in the same way.
(§3) PARP activity was determined in homogenates of subcutaneous D283Med xenografts and brain tissue (see above). Maximally stimulated PARP activity was measured in replicate samples (n⩾3) of a 1 : 1000 dilution of the homogenate as described for permeabilised D283Med cells (see above). Data were calculated as pmol PAR per mg protein by reference to the PAR standard curve and protein content of the sample and expressed as a percentage of the corresponding tissue from the saline-treated control animals. The mean PARP activity in xenograft and brain samples taken at each time point was expressed as a percentage of the mean PARP activity of control xenografts from untreated mice (n=3).

D283Med cells = test: XTT growth inhibition, D283Med; format: cell-based, human
Method: as §1

D425Med cells = test: XTT growth inhibition, D425Med; format: cell-based, human
Method: as §1

PARP-1 [2] = molecular target: T1, PARP-1 (Mus musculus, UniProt P11103); test: PARP activity in brain homogenates after AG-014699 dosing; format: in vivo
T1 construct: from tissue; host or cells: brain of CD-1 nude mice
T1 sequence (P11103 whole entry): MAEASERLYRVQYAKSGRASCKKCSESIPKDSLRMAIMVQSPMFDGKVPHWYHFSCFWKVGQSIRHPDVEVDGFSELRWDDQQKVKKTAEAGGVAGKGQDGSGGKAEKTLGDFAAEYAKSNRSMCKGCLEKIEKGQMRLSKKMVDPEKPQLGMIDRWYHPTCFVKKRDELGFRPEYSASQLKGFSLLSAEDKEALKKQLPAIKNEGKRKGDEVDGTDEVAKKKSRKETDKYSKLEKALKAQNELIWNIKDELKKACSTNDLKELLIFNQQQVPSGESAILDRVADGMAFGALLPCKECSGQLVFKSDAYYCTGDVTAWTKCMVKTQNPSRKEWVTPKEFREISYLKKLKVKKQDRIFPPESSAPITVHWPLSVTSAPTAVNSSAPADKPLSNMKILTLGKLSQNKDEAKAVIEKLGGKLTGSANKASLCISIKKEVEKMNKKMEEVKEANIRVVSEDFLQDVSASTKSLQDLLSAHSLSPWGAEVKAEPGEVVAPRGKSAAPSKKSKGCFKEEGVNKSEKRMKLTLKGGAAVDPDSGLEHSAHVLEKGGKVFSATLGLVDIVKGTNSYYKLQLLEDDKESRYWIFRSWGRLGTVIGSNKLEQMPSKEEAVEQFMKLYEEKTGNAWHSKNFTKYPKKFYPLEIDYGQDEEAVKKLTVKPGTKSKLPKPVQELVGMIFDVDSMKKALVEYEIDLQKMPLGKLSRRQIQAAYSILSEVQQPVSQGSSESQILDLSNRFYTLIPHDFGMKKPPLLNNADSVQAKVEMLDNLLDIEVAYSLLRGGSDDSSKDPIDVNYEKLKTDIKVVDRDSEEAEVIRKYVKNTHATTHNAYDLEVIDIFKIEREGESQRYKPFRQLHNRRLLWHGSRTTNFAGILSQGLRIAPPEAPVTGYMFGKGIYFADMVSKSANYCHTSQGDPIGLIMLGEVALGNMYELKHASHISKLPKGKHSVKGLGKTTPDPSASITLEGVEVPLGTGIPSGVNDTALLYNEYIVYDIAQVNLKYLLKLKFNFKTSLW
Method: as §2, §3

[3] = Toxicity (body weight loss) in tumour-bearing mice; format: in vivo, mouse
Method: CD-1 nude mice bearing palpable, established subcutaneous D425Med, D283Med and D384Med xenografts were treated with normal saline (control animals), temozolomide (68 mg kg^−1 per os (p.o.)) or AG-014699 (1 mg kg^−1 i.p.) alone or in combination, daily for 5 days (five mice per group). For drug combinations, AG-014699 was administered immediately after administering temozolomide. Tumour volumes, determined from two-dimensional calliper measurements and the equation a^2 × b/2 (where a is the […] of the tumour), were monitored for the experimental period (up to 100 days), and are presented for each group of mice as median relative tumour volume (RTV) values. Relative tumour volume 1 is the tumour volume on the initial day of treatment (day 0), and RTV4 is the tumour volume four times that on the initial day of treatment. Tumour growth delay (TGD) is defined as the time to RTV4 in drug-treated mice compared with the time to RTV4 in control (vehicle alone) mice. Median tumour volume is shown, rather than the mean, as this is generally accepted as the most statistically reliable representation of the average growth rate of tumours in a small group of mice, if a normal distribution of tumour volumes cannot be assumed. Tumour growth delay was calculated as: median time to RTV4 in treated group−median time to RTV4 in control group. Percentage enhancement was calculated as 100 × (TGD TMZ+AG-014699/TGD TMZ alone)−100 ([Calabrese et al, 2004]).

CNCc1ccc(-c2[nH]c3cc(F)cc4c3c2CCNC4=O)cc1 [AG-014699]
Sensitisation to temozolomide by AG-014699 (D384Med cells; D384Med (MGMT+ MMR+), 0.4 μM AG-014699): > 3 fold | Growth inhibition by AG-014699 alone (D384Med cells; D384Med, 0.4 μM, data not shown): not growth inhibitory | PF50 (D384Med cells; D384Med, potentiation of temozolomide by 0.4 μM AG-014699): 3.8±1 | Median nadir body weight (% starting weight) (D283Med xenografts; D283Med-bearing mice, daily x5, TMZ 68 mg kg−1 p.o., AG-014699 1 mg kg−1 i.p.): 100 % starting weight | Median time to RTV4 (D283Med xenografts; D283Med, daily x5, TMZ 68 mg kg−1 p.o., AG-014699 1 mg kg−1 i.p.): 8 days | Complete regressions (D283Med xenografts; D283Med, mice with regression/group): 0/5 | Tumour growth delay (D283Med xenografts; D283Med, versus control time to RTV4): 1 days | Reduction of PARP activity in tumour (nadir) (PARP-1 [1]; D283Med xenograft, 6 h post-injection, similar after first and fourth dose, 1 mg kg−1 i.p.): around 75% | Reduction of PARP activity in xenograft tissue (PARP-1 [1]; abstract, time not stated): ≥ 75% | Sensitisation to temozolomide by AG-014699 (D283Med cells; D283Med (MMR-defective), 0.4 μM AG-014699): 20 fold | Growth inhibition by AG-014699 alone (D283Med cells; D283Med, 0.4 μM, data not shown): not growth inhibitory | PF50 (D283Med cells; D283Med, potentiation of temozolomide by 0.4 μM AG-014699): 19±4.7 | Sensitisation to temozolomide by AG-014699 (D425Med cells; D425Med (MGMT-deficient), 0.4 μM AG-014699): not sensitised; also recorded: no sensitisation; also recorded: did not enhance temozolomide sensitivity | Growth inhibition by AG-014699 alone (D425Med cells; D425Med, 0.4 μM, data not shown): not growth inhibitory | PF50 (D425Med cells; D425Med, potentiation of temozolomide by 0.4 μM AG-014699): 0.7±0.4 | PARP activity in brain (PARP-1 [2]; 24 h after fourth daily dose 1 mg kg−1 i.p.): near-normal activity | Reduction of PARP activity in brain (PARP-1 [2]; 24 h after single dose 1 mg kg−1 i.p.): approximately 40% | Reduction of PARP activity in brain tissue (PARP-1 [2]; abstract, time not stated): ≥ 75% | Reduction of PARP activity in brain (PARP-1 [2]; first 2 h after single dose 1 mg kg−1 i.p.): around 75% | Toxicity of AG-014699 alone ([3]; 1 mg kg−1 i.p. daily five times): not toxic; also recorded: did not cause any marked toxicity | Body weight loss ([3]; daily x5, TMZ 68 mg kg−1 p.o., AG-014699 1 mg kg−1 i.p.): 1±1%
